Data taken from US10189824B2, “Pyrimidine-diamine dual HSP90/TRAP1 inhibitors” (CalAsia Pharmaceuticals, Inc., priority 2014, dated 2019).

Columns and labels:
U251MG cells = experiment: TMRE assay, cell-based (mitochondrial membrane potential); conditions: for Decrease of specific TMRE fluorescence vs untreated: U251MG cells, 48 h
Experimental: […] TMRE (200 nM) was then added to wells for 30 min and monitored for changes in fluorescence activity either by fluorescence microscopy using an inverted Zeiss LSM 710 confocal microscope or by spectrophotometry using a fluorescence plate reader (544ex/590em) after washing the cells. Specific TMRE fluorescence was calculated by comparison to matched wells pretreated with 20 uM FCCP for 10 min prior to addition of TMRE. For mitochondria assays, untreated U251MG cells grown to confluence in T75 culture flasks. Mitochondria from these cells were isolated using a mitochondria isolation kit (Thermo Scientific) and loaded with 0.1 mM TMRE in kit buffer at 37° C. for 20 min. After washing, the TMRE-loaded mitochondria (2 ug per well) were incubated in a 96 well black plate with test compounds and monitored kinetically at 30° C. for changes in fluorescence using a fluorescence plate reader (ex 544/em 590). The fluorescence intensity after treatment with 20 um FCCP in control wells corresponded to a fully depolarized state.
(§1) Mitochondrial integrity was evaluated using Tetramethylrhodamine ethyl ester (TMRE) assay. A TMRE assay kit (Abcam) was used to evaluate Hsp90/TRAP1 inhibitor-induced changes in mitochondrial membrane potential. […] TMRE (200 nM) was then added to wells for 30 min and monitored for changes in fluorescence activity using a fluorescence plate reader (ex544/em 590) after washing the cells. Specific TMRE fluorescence was calculated by comparison to matched wells pretreated with the depolarizing proton ionophore carbonyl cyanide 4-(trifluoromethoxy)phenylhydrazone (FCCP) at 20 uM 10 min prior to addition of TMRE. For mitochondria assays, mitochondria was isolated using a kit from Thermoscientific and loaded with 0.1 mM TMRE. TMRE-loaded mitochondria (2 μg per well) were incubated with test compounds and monitored kinetically at 30° C. for changes in fluorescence using a flurorescence plate reader (ex 544/em 590) (FIGS. 6A, 9A and 12).

GBM43 = experiment: Cellular efficacy in Mayo Clinic GBM PDX cell line GBM43; format: cell-based
Experimental: Short-term explant cultures from PDX models were seeded into 96-well Perfecta3D hanging drop plates to form a single spheroid in each well after 2 days. The spheroids were transferred to a round bottom 96 well plate by centrifugation and then incubated with graded concentrations of test compound (8 spheroids per compound concentration). Spheroid volumes were monitored every 6 hours over the course of 5 days using the IncuCyte system (Essen BioScience, MI, US) to provide a growth curve akin to a tumor regrowth assay.

human Hsp90 = experiment: Fluorescence polarization (FP) displacement assay, GA-FITC, Hsp90; format: binding; conditions: FP displacement of GA-FITC, 50 nM Hsp90; for Ki: read-out: Biochemical efficacy HSP90 Ki
Experimental: (§2) Prior to transforming into BL21 (DE3) all the cloned vectors were sequence confirmed. Expressed proteins were purified using NTA resin (Life Technologies) followed by size exclusion chromatography using FPLC. The molecular mass of the purified proteins was confirmed by MALDI-TOF and assessed for purity by SDS-PAGE.
(§3) The assay conditions were 20 mM HEPES, pH-7.5, 50 mM KCl, 5 mM MgCl2, 20 mM sodium molybdate, 2 mM DTT, 0.01% NP40, 100 ug/ml BSA, 50 nM Hsp90 or 200 nM TRAP1, 1% DMSO, and 8 nM (for Hsp90) or 20 nM (for TRAP1) GA-FITC in the presence of increasing concentrations of test compound.

TRAP1 = target: T1, TRAP1 (Homo sapiens, UniProt Q12931); experiment: Fluorescence polarization (FP) displacement assay, GA-FITC, TRAP1; format: binding; conditions: FP displacement of GA-FITC, 200 nM TRAP1; for Ki: NA: Not active, read-out: Biochemical efficacy TRAP1 Ki
T1 construct: Recombinant full-length human Hsp90 and 459 TRAP1 were cloned; 6His (TEV-cleavable) (N); made in house; host or cells: E. coli BL21 (DE3)
T1 sequence (Q12931 60-704): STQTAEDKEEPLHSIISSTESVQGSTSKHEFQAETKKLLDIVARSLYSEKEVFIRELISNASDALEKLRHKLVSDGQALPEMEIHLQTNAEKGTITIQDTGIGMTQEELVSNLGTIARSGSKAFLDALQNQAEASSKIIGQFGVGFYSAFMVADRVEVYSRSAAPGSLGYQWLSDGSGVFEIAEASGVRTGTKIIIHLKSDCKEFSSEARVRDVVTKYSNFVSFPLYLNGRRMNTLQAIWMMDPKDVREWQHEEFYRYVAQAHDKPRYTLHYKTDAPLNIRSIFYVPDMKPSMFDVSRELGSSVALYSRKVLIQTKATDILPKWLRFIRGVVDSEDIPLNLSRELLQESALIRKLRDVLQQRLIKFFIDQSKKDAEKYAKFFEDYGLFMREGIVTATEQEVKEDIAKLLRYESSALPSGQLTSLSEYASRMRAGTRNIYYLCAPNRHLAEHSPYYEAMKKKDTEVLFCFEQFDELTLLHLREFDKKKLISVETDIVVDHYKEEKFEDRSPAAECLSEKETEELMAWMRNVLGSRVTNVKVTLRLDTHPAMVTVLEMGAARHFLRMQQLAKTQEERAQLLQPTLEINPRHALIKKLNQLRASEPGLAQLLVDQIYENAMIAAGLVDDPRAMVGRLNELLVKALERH
Experimental: as §2, §3

[1] = test system: Hsp90 client proteins (EGFR and Akt1) in Mayo Clinic GBM PDX cell lines; experiment: Cellular biomarker assays (EGFR, Akt1 ELISA) in Mayo Clinic GBM PDX cell lines; format: cell-based; conditions: 48 hours; three cell lines
MDA-MB-231 cells = experiment: TMRE assay, MDA-MB-231 cell mitochondrial integrity; format: cell-based; conditions: 2 hours or 4 hours
Experimental: as §1

[2] = test system: EGFR levels in U251MG cells; experiment: Biomarker quantitation by ELISA, EGFR; format: cell-based; conditions: 16 uM, 48 h
Experimental: U251 cells were plated in 6 well format culture dishes overnight at 37° C. with 5% CO2 and then treated with increasing concentrations of test compounds for 48 h at 37° C. with 5% CO2. Quantification of total Akt1, EGFR, and Hsp70 in cell lysates was accomplished using ELISA kits (R&D Systems) according to the manufacturer's recommendations and utilizing a Synergy HT micro-titer plate reader (Biotek). Cell lysates were prepared as recommended in the kit procedure. Protein concentrations of lysates clarified using centrifugation were determined using a Bradford assay (Thermo Scientific), and the values were used to normalize the biomarker values.

Compound	Effect on TMRE fluorescence of U251MG cells (U251MG cells; 2 hour or 4 hr)	EC50 (GBM43) [µM]	IC50 (human Hsp90; read-out: Biochemical efficacy HSP90 IC50) [µM]	Ki (human Hsp90) [µM]	Ki (TRAP1) [µM]	IC50 (TRAP1; read-out: Biochemical efficacy TRAP1 IC50) [µM]	Effect on EGFR and Akt1 levels, GBM PDX cell lines [1]	Effect on TMRE fluorescence of MDA-MB-231 cells (MDA-MB-231 cells)	Decrease of specific TMRE fluorescence vs untreated (U251MG cells; 5 uM) [%]	Decrease of specific TMRE fluorescence vs untreated (U251MG cells; 50 uM) [%]	Reduction of EGFR levels [2] [%]
COc1c(C)cnc(CN(CC2(c3ccc(F)cc3)CCOCC2)c2cc(Cl)nc(N)n2)c1C [Compound A, 6-chloro-4-N-{[4-(4-fluorophenyl)oxan-4-yl]methyl}-4-N-[(4-methoxy-3,5-dimethylpyridin-2-yl)methyl]pyrimidine-2,4-diamine]	dose-dependent decrease	0.28	0.044	0.011	0.039	0.312	suppression of Hsp90 client proteins	dose-dependent decrease			
COc1c(C)cnc(CN(CCc2ccccn2)c2cc(Cl)nc(N)n2)c1C [Compound 1, 6-chloro-4-N-[(4-methoxy-3,5-dimethylpyridin-2yl)methyl]-4-N-[2-(pyridine-2-yl)ethyl]pyrimidine-2,4-amine]				0.0394	0.0504				42	73	71
